From patent publication US20250064941A1, “SIGLEC LIGANDS, CONJUGATES, AND METHODS OF USE THEREOF” (Osprey Biopharmaceuticals, Inc., priority 2023, published 2025) come the findings set out here.

Assay [1] addresses T1, mouse Siglec-2-Fc-Avi (CD22) (Mus musculus, UniProt P35329).
T1 construct: made in house
T1 sequence (P35329 22-708 limits assumed): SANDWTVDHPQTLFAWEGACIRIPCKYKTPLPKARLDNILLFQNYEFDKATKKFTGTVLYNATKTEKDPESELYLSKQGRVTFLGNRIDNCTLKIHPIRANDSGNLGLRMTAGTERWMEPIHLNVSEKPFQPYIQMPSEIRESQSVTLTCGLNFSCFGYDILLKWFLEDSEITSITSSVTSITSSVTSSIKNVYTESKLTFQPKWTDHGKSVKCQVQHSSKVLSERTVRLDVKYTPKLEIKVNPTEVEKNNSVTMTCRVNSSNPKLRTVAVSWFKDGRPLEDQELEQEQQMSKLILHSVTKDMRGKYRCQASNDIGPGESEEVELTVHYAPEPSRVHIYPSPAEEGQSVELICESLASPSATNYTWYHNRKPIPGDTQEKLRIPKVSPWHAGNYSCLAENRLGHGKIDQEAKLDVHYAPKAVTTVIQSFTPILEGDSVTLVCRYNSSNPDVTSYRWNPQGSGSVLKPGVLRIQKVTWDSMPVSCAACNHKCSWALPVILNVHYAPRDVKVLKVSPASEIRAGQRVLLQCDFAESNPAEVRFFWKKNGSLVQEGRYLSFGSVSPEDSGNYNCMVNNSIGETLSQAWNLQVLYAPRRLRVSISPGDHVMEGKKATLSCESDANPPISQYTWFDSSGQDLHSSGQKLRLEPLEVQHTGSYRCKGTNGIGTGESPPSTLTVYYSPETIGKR
As to the kind of experiment: SPR binding affinity to mouse CD22. To be noted: steady-state analysis. In outline:
(§1)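 Using a Biacore 8K, compounds were tested against biotinylated CD22 captured after sialidase treatment. The running buffer held 1% DMSO, corrected with a 0.5–2% DMSO series. Affinity was derived by steady-state analysis.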
A general note: In SPR one partner is held on a chip, and binding of the other changes the refractive index at the surface.

The target of assay [2] is T2, human Siglec-2/CD22 protein (Homo sapiens, UniProt P20273).
T2 construct: purchased Acro Biosystems SI2-H82E3
T2 sequence (P20273 20-847): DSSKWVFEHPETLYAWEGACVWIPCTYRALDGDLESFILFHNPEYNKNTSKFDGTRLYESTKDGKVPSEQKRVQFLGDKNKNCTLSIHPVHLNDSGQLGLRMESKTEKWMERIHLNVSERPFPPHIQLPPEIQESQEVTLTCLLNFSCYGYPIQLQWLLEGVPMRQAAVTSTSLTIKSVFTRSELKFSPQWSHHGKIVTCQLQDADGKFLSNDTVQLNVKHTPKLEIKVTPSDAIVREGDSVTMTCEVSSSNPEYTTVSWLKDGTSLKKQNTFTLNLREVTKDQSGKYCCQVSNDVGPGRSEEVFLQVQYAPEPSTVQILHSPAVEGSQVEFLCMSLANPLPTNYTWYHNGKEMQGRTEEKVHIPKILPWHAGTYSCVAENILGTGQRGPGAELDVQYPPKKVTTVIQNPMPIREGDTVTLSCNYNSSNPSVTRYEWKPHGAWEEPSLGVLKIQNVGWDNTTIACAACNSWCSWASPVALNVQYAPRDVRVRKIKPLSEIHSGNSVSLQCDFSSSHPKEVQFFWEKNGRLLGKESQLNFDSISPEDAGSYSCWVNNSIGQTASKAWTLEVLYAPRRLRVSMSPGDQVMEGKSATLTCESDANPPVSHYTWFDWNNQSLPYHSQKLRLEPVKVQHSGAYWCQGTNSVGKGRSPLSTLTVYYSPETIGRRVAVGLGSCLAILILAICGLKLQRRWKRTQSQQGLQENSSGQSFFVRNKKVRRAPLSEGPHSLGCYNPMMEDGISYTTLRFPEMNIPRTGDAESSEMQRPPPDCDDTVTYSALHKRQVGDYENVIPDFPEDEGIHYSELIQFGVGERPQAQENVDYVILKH
Put plainly: SPR binding affinity to human CD22. The conditions noted are these: steady-state analysis. In outline:
as §1

Another assay has as its target cynomolgus Siglec-2/CD22 (Macaca fascicularis, UniProt A0A2K5WCZ6). As to the kind of experiment: biochemical. The conditions noted are these: SPR, steady-state analysis; read-out: Affinity cyno CD22. It counts as binding. In outline:
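Compound binding measured by steady-state SPR analysis, 120 s dissociation, in HEPES-NaCl-Tween buffer pH 7.5 containing 1% DMSO, DMSO solvent-corrected. Surface: cyno CD22, sialic acids first stripped by SialoExo for 4 h at 37° C., then amine-coupled onto CM5.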

Chain of cynomolgus Siglec-2/CD22 (A0A2K5WCZ6 entry or part of it): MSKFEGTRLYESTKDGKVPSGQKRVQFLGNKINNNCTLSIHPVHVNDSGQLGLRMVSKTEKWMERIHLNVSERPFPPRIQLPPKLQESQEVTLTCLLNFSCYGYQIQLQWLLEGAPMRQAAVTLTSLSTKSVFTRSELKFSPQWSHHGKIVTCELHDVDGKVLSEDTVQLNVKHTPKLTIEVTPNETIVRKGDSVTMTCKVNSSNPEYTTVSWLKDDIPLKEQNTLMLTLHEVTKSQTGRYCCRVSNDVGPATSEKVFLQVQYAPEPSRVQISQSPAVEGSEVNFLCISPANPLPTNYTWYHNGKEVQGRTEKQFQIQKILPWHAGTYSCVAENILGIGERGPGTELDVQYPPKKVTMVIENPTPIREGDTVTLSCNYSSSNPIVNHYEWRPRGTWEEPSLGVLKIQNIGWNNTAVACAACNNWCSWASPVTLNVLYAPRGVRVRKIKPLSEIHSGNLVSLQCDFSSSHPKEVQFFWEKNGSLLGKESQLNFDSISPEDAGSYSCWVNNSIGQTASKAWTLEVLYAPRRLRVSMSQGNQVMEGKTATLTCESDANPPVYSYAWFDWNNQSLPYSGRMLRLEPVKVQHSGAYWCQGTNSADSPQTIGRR

Take `C#CCOCCOCCO[C@]1(C(=O)O)C[C@H](O)[C@@H](NC(=O)CO)[C@H]([C@H](O)[C@H](O)CNC(=O)Cc2cc(F)cc(C(F)(F)F)c2)O1` [Compound 133, (2R,4S,5R,6R)-6-((1R,2R)-3-(2-(3-fluoro-5-(trifluoromethyl)phenyl)acetamido)-1,2-dihydroxypropyl)-4-hydroxy-5-(2-hydroxyacetamido)-2-(2-(2-(prop-2-yn-1-yloxy)ethoxy)ethoxy)tetrahydro-2H-pyran-2-carboxylic acid]: the figures for the Kd (in assay [1]; in assay [2]; on cynomolgus Siglec-2/CD22) were more than 10 µM, less than 1 µM and less than 1 µM, respectively.

In the case of `C#CCOCCOCCO[C@]1(C(=O)O)C[C@H](O)[C@@H](NC(=O)CO)[C@H]([C@H](O)[C@H](O)CNC(=O)Cc2ccc(Cl)c(O)c2)O1` [Compound 134, (2R,4S,5R,6R)-6-((1R,2R)-3-(2-(4-chloro-3-hydroxyphenyl)acetamido)-1,2-dihydroxypropyl)-4-hydroxy-5-(2-hydroxyacetamido)-2-(2-(2-(prop-2-yn-1-yloxy)ethoxy)ethoxy)tetrahydro-2H-pyran-2-carboxylic acid], the Kd was 1 to 10 µM in assay [1], less than 1 µM in assay [2] and less than 1 µM at cynomolgus Siglec-2/CD22.

`C#CCCOc1ccc(CO[C@]2(C(=O)O)C[C@H](O)[C@@H](NC(=O)CO)[C@H]([C@H](O)[C@H](O)CNC(=O)Cc3ccc(Cl)c(O)c3)O2)cc1` [Compound 135, (2R,4S,5R,6R)-2-((4-(but-3-yn-1-yloxy)benzyl)oxy)-6-((1R,2R)-3-(2-(4-chloro-3-hydroxyphenyl)acetamido)-1,2-dihydroxypropyl)-4-hydroxy-5-(2-hydroxyacetamido)tetrahydro-2H-pyran-2-carboxylic acid]: the Kd (in assay [1]; in assay [2]; at cynomolgus Siglec-2/CD22) was less than 1 µM in each case.

On to `C#CCCOc1ccc(CO[C@]2(C(=O)O)C[C@H](O)[C@@H](NC(=O)CO)[C@H]([C@H](O)[C@H](O)CNC(=O)Cc3ccc(O)c(Cl)c3)O2)cc1` [Compound 136, (2R,4S,5R,6R)-2-((4-(but-3-yn-1-yloxy)benzyl)oxy)-6-((1R,2R)-3-(2-(3-chloro-4-hydroxyphenyl)acetamido)-1,2-dihydroxypropyl)-4-hydroxy-5-(2-hydroxyacetamido)tetrahydro-2H-pyran-2-carboxylic acid], for which the Kd is 1 to 10 µM in assay [1], less than 1 µM in assay [2] and less than 1 µM at cynomolgus Siglec-2/CD22.

In the case of `C#CCCOc1ccc(CO[C@]2(C(=O)O)C[C@H](O)[C@@H](NC(=O)CO)[C@H]([C@H](O)[C@H](O)CNC(=O)Cc3ccc(N4CCC(NC(C)=O)CC4)cc3)O2)cc1` [Compound 137, (2R,4S,5R,6R)-6-((1R,2R)-3-(2-(4-(4-acetamidopiperidin-1-yl)phenyl)acetamido)-1,2-dihydroxypropyl)-2-((4-(but-3-yn-1-yloxy)benzyl)oxy)-4-hydroxy-5-(2-hydroxyacetamido)tetrahydro-2H-pyran-2-carboxylic acid], the values for the Kd (in assay [1]; in assay [2]; on cynomolgus Siglec-2/CD22) were more than 10 µM, more than 10 µM and 1 to 10 µM, respectively.

Consider `C#CCCOc1ccc(CO[C@]2(C(=O)O)C[C@H](O)[C@@H](NC(=O)CO)[C@H]([C@H](O)[C@H](O)CNC(=O)Cc3ccccc3N3CCOCC3)O2)cc1` [Compound 138, (2R,4S,5R,6R)-2-((4-(but-3-yn-1-yloxy)benzyl)oxy)-6-((1R,2R)-1,2-dihydroxy-3-(2-(2-morpholinophenyl)acetamido)propyl)-4-hydroxy-5-(2-hydroxyacetamido)tetrahydro-2H-pyran-2-carboxylic acid], for which the Kd in assay [1] was 1 to 10 µM; in assay [2], 1 to 10 µM; on cynomolgus Siglec-2/CD22 it was less than 1 µM.

For the molecule `C#CCCOc1ccc(CO[C@]2(C(=O)O)C[C@H](O)[C@@H](NC(=O)CO)[C@H]([C@H](O)[C@H](O)CNC(=O)Cc3cccc(N4CCOCC4)c3)O2)cc1` [Compound 140, (2R,4S,5R,6R)-2-((4-(but-3-yn-1-yloxy)benzyl)oxy)-6-((1R,2R)-1,2-dihydroxy-3-(2-(3-morpholinophenyl)acetamido)propyl)-4-hydroxy-5-(2-hydroxyacetamido)tetrahydro-2H-pyran-2-carboxylic acid], the Kd (in assay [1]; in assay [2]; on cynomolgus Siglec-2/CD22) was 1 to 10 µM in each case.

Consider `C#CCCCCCCS[C@]1(C(=O)O)C[C@H](O)[C@@H](NC(=O)CO)[C@H]([C@H](O)[C@H](O)CNC(=O)Cc2cccc(O)c2)O1` [Compound 141, (2S,4S,5R,6R)-6-((1R,2R)-1,2-dihydroxy-3-(2-(3-hydroxyphenyl)acetamido)propyl)-4-hydroxy-5-(2-hydroxyacetamido)-2-(oct-7-yn-1-ylthio)tetrahydro-2H-pyran-2-carboxylic acid], for which the results for the Kd (in assay [1]; in assay [2]; at cynomolgus Siglec-2/CD22) were less than 1 µM, less than 1 µM and 1 to 10 µM, respectively.

Regarding `C#Cc1ccc(CO[C@]2(C(=O)O)C[C@H](O)[C@@H](NC(=O)CO)[C@H]([C@H](O)[C@H](O)CNC(=O)Cc3cccc(O)c3)O2)cc1` [Compound 142, (2R,4S,5R,6R)-6-((1R,2R)-1,2-dihydroxy-3-(2-(3-hydroxyphenyl)acetamido)propyl)-2-((4-ethynylbenzyl)oxy)-4-hydroxy-5-(2-hydroxyacetamido)tetrahydro-2H-pyran-2-carboxylic acid], the Kd (in assay [1]; in assay [2]; on cynomolgus Siglec-2/CD22) was less than 1 µM in each case.

In the case of `O=C(O)CCCCCCO[C@]1(C(=O)O)C[C@H](O)[C@@H](NC(=O)CO)[C@H]([C@H](O)[C@H](O)CNC(=O)Cc2cccc(O)c2)O1` [Compound 143, (2R,4S,5R,6R)-2-((6-carboxyhexyl)oxy)-6-((1R,2R)-1,2-dihydroxy-3-(2-(3-hydroxyphenyl)acetamido)propyl)-4-hydroxy-5-(2-hydroxyacetamido)tetrahydro-2H-pyran-2-carboxylic acid], the Kd in assay [1] is 1 to 10 µM; in assay [2], less than 1 µM; on cynomolgus Siglec-2/CD22 it was less than 1 µM.

With `C#CCOCCCCCCO[C@]1(C(=O)O)C[C@H](O)[C@@H](NC(=O)CO)[C@H]([C@H](O)[C@H](O)CNC(=O)Cc2cccc(O)c2)O1` [Compound 144, (2R,4S,5R,6R)-6-((1R,2R)-1,2-dihydroxy-3-(2-(3-hydroxyphenyl)acetamido)propyl)-4-hydroxy-5-(2-hydroxyacetamido)-2-((6-(prop-2-yn-1-yloxy)hexyl)oxy)tetrahydro-2H-pyran-2-carboxylic acid], the values for the Kd (in assay [1]; in assay [2]; at cynomolgus Siglec-2/CD22) were 1 to 10 µM, 1 to 10 µM and less than 1 µM, respectively.

As to `C#CCOc1ccc(CO[C@]2(C(=O)O)C[C@H](O)[C@@H](NC(=O)CO)[C@H]([C@H](O)[C@H](O)CNC(=O)Cc3ccccc3O)O2)cc1` [Compound 145, (2R,4S,5R,6R)-6-((1R,2R)-1,2-dihydroxy-3-(2-(2-hydroxyphenyl)acetamido)propyl)-4-hydroxy-5-(2-hydroxyacetamido)-2-((4-(prop-2-yn-1-yloxy)benzyl)oxy)tetrahydro-2H-pyran-2-carboxylic acid], the Kd (in assay [1]; in assay [2]; on cynomolgus Siglec-2/CD22) was 1 to 10 µM in each case.
